Laboratory results as given in patent US12440529B2, “Topical Croton lechleri compositions and their use in the treatment of a bacterial colonization or primary or secondary bacterial infection of an underlying skin disorder” (ALPHYN BIOLOGICS, INC., priority 2020, dated 2025).
In brackets after ≈: the same amount, converted by molar mass. Read-outs that look alike come from different tables or passages of the source.

Legend:
cells = details: Chen, Planta Med. 60 (1994), cited from earlier work; for effect on cell proliferation: compounds obtained through extraction
[1] = system: S. pyogenes (Erythromycin and Tetracycline resistant strains); assay: MIC/MBC assay (2-fold microdilution, CAMHB with […] laked horse blood); assay type: cell-based; details: Streptococcus pyogenes
Description: Tables 26 and 27 show an assay whose setup is same as what was used for screening S. aureus and P. aeruginosa (i.e. 2-fold microdilution). The 20 strains of S. pyogenes assayed were selected from the two rounds of antibiotic screening to identify Erythromycin and Tetracycline resistant strains. […] For this feasibility study, AB-101 Lot 1 and Lot 2 was used. P. aeruginosa ATCC 27853 was tested as a positive control for AB-101 activity.

COc1ccc([C@H]2Oc3c(OC)cc(CCCO)cc3[C@@H]2CO)cc1OC [dimethylcedrusin]
healing effects (cells; Ecuadorian sap): little healing effects

epigallocatechin [epigalocatechin]
effect on cell proliferation (cells): slightly stimulating

epicatechin
effect on cell proliferation (cells): little effect

CN[C@H](CC(C)C)C(=O)N[C@H]1C(=O)N[C@@H](CC(N)=O)C(=O)N[C@H]2C(=O)N[C@H]3C(=O)N[C@H](C(=O)N[C@H](C(=O)O)c4cc(O)cc(O)c4-c4cc3ccc4O)[C@H](O)c3ccc(c(Cl)c3)Oc3cc2cc(c3O[C@@H]2O[C@H](CO)[C@@H](O)[C@H](O)[C@H]2O[C@H]2C[C@](C)(N)[C@H](O)[C@H](C)O2)Oc2ccc(cc2Cl)[C@H]1O [Vancomycin]
MIC ([1]; S. pyogenes strain 1744264): 0.5 µg/mL (≈ 0.345 µM)
MIC ([1]; S. pyogenes strain 1744265): 8 µg/mL (≈ 5.52 µM)
MIC ([1]; S. pyogenes strain 1744271): 0.5 µg/mL (≈ 0.345 µM)
MIC ([1]; S. pyogenes strain 1744272): 1 µg/mL (≈ 0.69 µM)
MIC ([1]; S. pyogenes strain 1744275): 0.25 to 0.5 µg/mL (≈ 0.173 to 0.345 µM)
MIC ([1]; S. pyogenes strain 1744277): 4 µg/mL (≈ 2.76 µM)
MIC ([1]; S. pyogenes strain 1744285): 0.5 µg/mL (≈ 0.345 µM)
MIC ([1]; S. pyogenes strain 2065754): 0.5 µg/mL (≈ 0.345 µM)
MIC ([1]; S. pyogenes strain 2065755): 0.5 µg/mL (≈ 0.345 µM)
MIC ([1]; S. pyogenes strain 2065756): 0.5 µg/mL (≈ 0.345 µM)
MIC ([1]; S. pyogenes strain 2065757): 0.5 µg/mL (≈ 0.345 µM)
MIC ([1]; S. pyogenes strain 2065759): 0.5 µg/mL (≈ 0.345 µM)
MIC ([1]; S. pyogenes strain 2065760): 0.5 µg/mL (≈ 0.345 µM)
MIC ([1]; S. pyogenes strain 2065761): 0.5 µg/mL (≈ 0.345 µM)
MIC ([1]; S. pyogenes strain 2065762): 0.5 µg/mL (≈ 0.345 µM)
MIC ([1]; S. pyogenes strain 2065763): 0.5 µg/mL (≈ 0.345 µM)
MIC ([1]; S. pyogenes strain 2065765): 2 to 4 µg/mL (≈ 1.38 to 2.76 µM)
MIC ([1]; S. pyogenes strain 20658748): 0.25 to 0.5 µg/mL (≈ 0.173 to 0.345 µM)
MIC ([1]; S. pyogenes strain 20658749): 0.5 µg/mL (≈ 0.345 µM)
MIC ([1]; S. pyogenes strain 20658750): 0.5 µg/mL (≈ 0.345 µM)

CN(C)[C@@H]1C(O)=C(C(N)=O)C(=O)[C@@]2(O)C(O)=C3C(=O)c4c(O)cccc4[C@@](C)(O)[C@H]3C[C@@H]12 [Tetracycline]
MIC ([1]; S. pyogenes strain 1744264, read-out: MIC): 0.25 µg/mL (≈ 0.563 µM)
MIC ([1]; S. pyogenes strain 1744265, read-out: MIC): 8 µg/mL (≈ 18 µM)
MIC ([1]; S. pyogenes strain 1744271, read-out: MIC): 16 µg/mL (≈ 36 µM)
MIC ([1]; S. pyogenes strain 1744272, read-out: MIC): 8 µg/mL (≈ 18 µM)
MIC ([1]; S. pyogenes strain 1744275, read-out: MIC): 0.25 µg/mL (≈ 0.563 µM)
MIC ([1]; S. pyogenes strain 1744277, read-out: MIC): 0.25 µg/mL (≈ 0.563 µM)
MIC ([1]; S. pyogenes strain 1744285, read-out: MIC): > 16 µg/mL
MIC ([1]; S. pyogenes strain 2065754, read-out: MIC): 16 µg/mL (≈ 36 µM)
MIC ([1]; S. pyogenes strain 2065755, read-out: MIC): > 16 µg/mL
MIC ([1]; S. pyogenes strain 2065756, read-out: MIC): > 16 µg/mL
MIC ([1]; S. pyogenes strain 2065757, read-out: MIC): 16 µg/mL (≈ 36 µM)
MIC ([1]; S. pyogenes strain 2065760, read-out: MIC): > 16 µg/mL
MIC ([1]; S. pyogenes strain 2065762, read-out: MIC): > 16 µg/mL
MIC ([1]; S. pyogenes strain 2065765, read-out: MIC): 2 to 4 µg/mL (≈ 4.5 to 9 µM)
MIC ([1]; S. pyogenes strain 20658748, read-out: MIC): 16 µg/mL (≈ 36 µM)
MIC ([1]; S. pyogenes strain 20658749, read-out: MIC): 16 µg/mL (≈ 36 µM)
MIC ([1]; S. pyogenes strain 20658750, read-out: MIC): > 16 µg/mL

Oc1cc(O)c2c(c1)O[C@H](c1cc(O)c(O)c(O)c1)[C@@H](O)C2 [gallocatechin]
effect on cell proliferation (cells): slightly stimulating
